# Laboratory results from the NIST ThermoML archive (doi:10.1016/j.jct.2011.04.023).
# ± gives the expanded uncertainty stated by the source.
# Experiments:
# [1] = Crystal; visual observation
# [2] = Molar enthalpy of transition or fusion; conditions: Crystal; DSC
smiles,measurement,setting,value
CCCCCC[n+]1cccc(C)c1.Cc1ccc(S(=O)(=O)[O-])cc1 [1-hexyl-3-methylpyridinium 4-methylbenzenesulfonate],Normal melting temperature,[1],56.2 ± 0.4 °C
same,Molar enthalpy of transition or fusion,[2],10.1 ± 0.34 kJ/mol
